The target of this assay is hCRTH2 receptor (Homo sapiens (Human), UniProt Q9Y5Y4). Description: hCRTH2 receptor membranes radioligand (3H-PGD2) displacement assay. The following applies: hCRTH2 membrane fragments, Binding-Buffer with 0.1% BSA. Here is the method: Biological Assays: Preparation of hCRTH2 Receptor Membranes and Radioligand Displacement Assay:
First, recombinant HEK293-hCRTH2 cells were detached from culture plates into 5 ml buffer A/plate (Buffer A: 5 mM Tris, 1 mM MgCl2-6H2O pH=7.4) using a rubber policeman. Cells were then transferred into centrifugation tubes and centrifuged for 5 min at 400 g. The cell pellet was resuspended in the same buffer and tubes were frozen at −80° C. Cells were thawed and membrane fragments were generated by homogenization using a polytron homogenizer (30 seconds). The membrane fragments were then centrifuged at 3000 g for 20 minutes and resuspended in buffer C (Buffer C: 75 mM Tris, 25 mM MgCl2, 250 mM Saccharose pH 7.4). Aliquots of membrane fragments were stored at −20° C.
Binding assay was performed in a final assay volume of 250 μl. First, 25 μl of test compound, previously diluted in Binding-Buffer (Binding-Buffer: 50 mM Tris-Base, 100 mM NaCl, 1 mM EDTA, 0.1% BSA (protease free), 0.01% NaN3, 10 mM MnCl2, pH 7.0) was placed into each well. […] Binding assay was started by addition of 100 μl CRTH2 membrane fragments, reaching a final concentration of 20 μg/well. For non-specific binding, PGD2 was added to the reaction mixture to […] final concentration. This assay mix was incubated for 90 minutes at room temperature and then filtered through a GF/C filter 96-well plate which was pre-soaked for 3 hours in 0.5% polyethyleneimine (PEI). The filter-wells were washed three times with ice cold Binding-Buffer. Then, 40 μl of Microscint-40 (Packard) was added to each well and the retained radioactivity quantified in a Topcount (Packard).
Chain of hCRTH2 receptor (Q9Y5Y4 whole entry, the tested form may be a part): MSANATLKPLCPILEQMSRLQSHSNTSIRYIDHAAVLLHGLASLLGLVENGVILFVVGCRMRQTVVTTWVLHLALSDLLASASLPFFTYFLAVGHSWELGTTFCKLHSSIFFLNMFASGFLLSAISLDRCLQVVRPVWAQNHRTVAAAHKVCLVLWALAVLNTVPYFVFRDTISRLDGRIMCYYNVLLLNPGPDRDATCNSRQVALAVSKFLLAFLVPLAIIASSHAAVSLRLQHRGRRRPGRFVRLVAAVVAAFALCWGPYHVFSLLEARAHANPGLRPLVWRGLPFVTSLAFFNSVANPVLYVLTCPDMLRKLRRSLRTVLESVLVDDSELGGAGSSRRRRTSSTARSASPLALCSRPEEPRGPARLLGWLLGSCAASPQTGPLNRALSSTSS
Consider `O=C(O)COc1ccc(Cl)cc1C1c2scnc2CCN1C(=O)Cc1n[nH]c2ccccc12` (racemic) [Example 44, (±)-{4-Chloro-2-[5-(2-1H-indazol-3-yl-acetyl)-4,5,6,7-tetrahydro-thiazolo[5,4-c]pyridin-4-yl]-phenoxy}-acetic acid], for which the IC50 is 48.1 nM.

Take `O=C(O)COc1ccc(Cl)cc1C1c2scnc2CCN1C(=O)/C=C/c1ccccc1` (racemic) [Example 45, (±)-(4-Chloro-2-{5-[(E)-(3-phenyl-acryloyl)]-4,5,6,7-tetrahydro-thiazolo[5,4-c]pyridin-4-yl}-phenoxy)-acetic acid]: the IC50 was 59.6 nM.

`O=C(O)COc1ccc(Cl)cc1C1c2scnc2CCN1C(=O)CC1Cc2ccccc2C1` (racemic) [Example 46, (±)-{4-Chloro-2-[5-(2-indan-2-yl-acetyl)-4,5,6,7-tetrahydro-thiazolo[5,4-c]pyridin-4-yl]-phenoxy}-acetic acid] displayed an IC50 of 6.2 nM.

In the case of `CC1(C)CC1C(=O)N1CCc2ncsc2C1c1cc(Cl)ccc1OCC(=O)O` (racemic) [Example 47, (±)-{4-Chloro-2-[(±)-5-(2,2-dimethyl-cyclopropanecarbonyl)-4,5,6,7-tetrahydro-thiazolo[5,4-c]pyridin-4-yl]-phenoxy}-acetic acid], the IC50 came to 37.1 nM.

Regarding `O=C(O)COc1ccc(Cl)cc1C1c2scnc2CCN1C(=O)CC1CCCCC1` (racemic) [Example 48, (±)-{4-Chloro-2-[5-(2-cyclohexyl-acetyl)-4,5,6,7-tetrahydro-thiazolo[5,4-c]pyridin-4-yl]-phenoxy}-acetic acid], the IC50 is 73 nM.

Take `O=C(O)COc1ccc(Cl)cc1C1c2scnc2CCN1C(=O)Cc1ccc2ccccc2c1` (racemic) [Example 49, (±)-{4-Chloro-2-[5-(2-naphthalen-2-yl-acetyl)-4,5,6,7-tetrahydro-thiazolo[5,4-c]pyridin-4-yl]-phenoxy}-acetic acid]: the IC50 stood at 15.8 nM.

In turn, `O=C(O)COc1ccc(Cl)cc1C1c2scnc2CCN1C(=O)Cc1cccc2ccccc12` (racemic) [Example 50, (±)-{4-Chloro-2-[5-(2-naphthalen-1-yl-acetyl)-4,5,6,7-tetrahydro-thiazolo[5,4-c]pyridin-4-yl]-phenoxy}-acetic acid] gave an IC50 of 12.6 nM.

As for `O=C(O)COc1ccc(Cl)cc1C1c2scnc2CCN1C(=O)CCCc1ccc(F)cc1` (racemic) [Example 51, (±)-(4-Chloro-2-{5-[4-(4-fluoro-phenyl)-butyryl]-4,5,6,7-tetrahydro-thiazolo[5,4-c]pyridin-4-yl}-phenoxy)-acetic acid], the IC50 was 9.7 nM.

The molecule `O=C(O)COc1ccc(Cl)cc1C1c2scnc2CCN1C(=O)CCN1CCc2ccccc21` (racemic) [Example 52, (±)-{4-Chloro-2-[5-(3-2,3-dihydro-indol-1-yl-propionyl)-4,5,6,7-tetrahydro-thiazolo[5,4-c]pyridin-4-yl]-phenoxy}-acetic acid] yielded an IC50 of 17.7 nM.

`COc1ccc(/C=C/C(=O)N2CCc3ncsc3C2c2cc(Cl)ccc2OCC(=O)O)cc1` (racemic) [Example 54, (±)-(4-Chloro-2-{5-[(E)-3-(4-methoxy-phenyl)-acryloyl]-4,5,6,7-tetrahydro-thiazolo[5,4-c]pyridin-4-yl}-phenoxy)-acetic acid] came in with an IC50 of 41.2 nM.

`Cc1ccc(/C=C/C(=O)N2CCc3ncsc3C2c2cc(Cl)ccc2OCC(=O)O)cc1` (racemic) [Example 56, (±)-{4-Chloro-2-[5-((E)-3-p-tolyl-acryloyl)-4,5,6,7-tetrahydro-thiazolo[5,4-c]pyridin-4-yl]-phenoxy}-acetic acid] came in with a half-inhibitory concentration (IC50) of 71.9 nM.

In the case of `O=C(O)COc1ccc(Cl)cc1C1c2scnc2CCN1C(=O)/C=C/c1ccc(F)cc1F` (racemic) [Example 57, (±)-(4-Chloro-2-{5-[(E)-3-(2,4-difluoro-phenyl)-acryloyl]-4,5,6,7-tetrahydro-thiazolo[5,4-c]pyridin-4-yl}-phenoxy)-acetic acid], the half-inhibitory concentration (IC50) is 3.5 nM.

`CCC(C)COC(=O)N1CCc2ncsc2[C@H]1c1cc(Cl)ccc1OCC(=O)O` (mixture of isomers) [Example 70, (R)-4-(2-Carboxymethoxy-5-chloro-phenyl)-6,7-dihydro-4H-thiazolo[5,4-c]pyridine-5-carboxylic acid (±)-2-methyl-butyl ester]: the IC50 was 2.8 nM.

As for `O=C(O)COc1ccc(Cl)cc1C1c2scnc2CCN1C(=O)OCCc1cccc(F)c1` (racemic) [Example 77, (±)-4-(2-Carboxymethoxy-5-chloro-phenyl)-6,7-dihydro-4H-thiazolo[5,4-c]pyridine-5-carboxylic acid 2-(3-fluoro-phenyl)-ethyl ester], the IC50 came out at 2.3 nM.

Molecule `O=C(O)COc1ccc(Cl)cc1C1c2scnc2CCN1C(=O)OCc1ccccc1F` (racemic) [Example 79, (±)-4-(2-Carboxymethoxy-5-chloro-phenyl)-6,7-dihydro-4H-thiazolo[5,4-c]pyridine-5-carboxylic acid 2-fluoro-benzyl ester] had an IC50 of 3 nM.

With `O=C(O)COc1ccc(Cl)cc1C1c2scnc2CCN1C(=O)OCc1ccc(F)cc1` (racemic) [Example 80, (±)-4-(2-Carboxymethoxy-5-chloro-phenyl)-6,7-dihydro-4H-thiazolo[5,4-c]pyridine-5-carboxylic acid 4-fluoro-benzyl ester], the IC50 is 1.9 nM.

The molecule `O=C(O)COc1ccc(Cl)cc1C1c2scnc2CCN1C(=O)OCc1cccc(Cl)c1Cl` (racemic) [Example 81, (±)-4-(2-Carboxymethoxy-5-chloro-phenyl)-6,7-dihydro-4H-thiazolo[5,4-c]pyridine-5-carboxylic acid 2,3-dichloro-benzyl ester] had an IC50 of 1.2 nM.

As to `O=C(O)COc1ccc(Cl)cc1C1c2scnc2CCN1C(=O)OCc1cccc(F)c1F` (racemic) [Example 82, (±)-4-(2-Carboxymethoxy-5-chloro-phenyl)-6,7-dihydro-4H-thiazolo[5,4-c]pyridine-5-carboxylic acid 2,3-difluoro-benzyl ester], the concentration for half-maximal inhibition (IC50) was found to be 8.5 nM.

As for `O=C(O)COc1ccc(Cl)cc1C1c2scnc2CCN1C(=O)OCc1ccccc1Cl` (racemic) [Example 84, (±)-4-(2-Carboxymethoxy-5-chloro-phenyl)-6,7-dihydro-4H-thiazolo[5,4-c]pyridine-5-carboxylic acid 2-chloro-benzyl ester], the IC50 was determined as 3.5 nM.

`O=C(O)COc1ccc(Cl)cc1C1c2scnc2CCN1C(=O)OCc1ccc(Cl)cc1` (racemic) [Example 86, (±)-4-(2-Carboxymethoxy-5-chloro-phenyl)-6,7-dihydro-4H-thiazolo[5,4-c]pyridine-5-carboxylic acid 4-chloro-benzyl ester] displayed an IC50 of 1.7 nM.

As for `O=C(O)COc1ccc(Cl)cc1C1c2scnc2CCN1C(=O)OCCc1ccccc1` (racemic) [Example 88, (±)-4-(2-Carboxymethoxy-5-chloro-phenyl)-6,7-dihydro-4H-thiazolo[5,4-c]pyridine-5-carboxylic acid phenethyl ester], the IC50 stood at 6.4 nM.

`O=C(O)COc1ccc(Cl)cc1C1c2scnc2CCN1C(=O)OCn1ncc2ccccc21` (racemic) [Example 90, (±)-4-(2-Carboxymethoxy-5-chloro-phenyl)-6,7-dihydro-4H-thiazolo[5,4-c]pyridine-5-carboxylic acid indazol-1-ylmethyl ester] displayed an IC50 of 1.6 nM.

Regarding `CCn1nc(C)cc1CCOC(=O)N1CCc2ncsc2C1c1cc(Cl)ccc1OCC(=O)O` (racemic) [Example 91, (±)-4-(2-Carboxymethoxy-5-chloro-phenyl)-6,7-dihydro-4H-thiazolo[5,4-c]pyridine-5-carboxylic acid 2-(2-ethyl-5-methyl-2H-pyrazol-3-yl)-ethyl ester], the IC50 amounted to 3.7 nM.

For the molecule `O=C(O)COc1ccc(Cl)cc1C1c2scnc2CCN1C(=O)OCc1cc(F)ccc1Cl` (racemic) [Example 92, (±)-4-(2-Carboxymethoxy-5-chloro-phenyl)-6,7-dihydro-4H-thiazolo[5,4-c]pyridine-5-carboxylic acid 2-chloro-5-fluoro-benzyl ester], the IC50 stood at 2.2 nM.

With `O=C(O)COc1ccc(Cl)cc1C1c2scnc2CCN1C(=O)OCc1cc(F)ccc1F` (racemic) [Example 93, (±)-4-(2-Carboxymethoxy-5-chloro-phenyl)-6,7-dihydro-4H-thiazolo[5,4-c]pyridine-5-carboxylic acid 2,5-difluoro-benzyl ester], the IC50 turned out to be 1.3 nM.

The molecule `O=C(O)COc1ccc(Cl)cc1C1c2scnc2CCN1C(=O)OCc1ccc(Cl)cc1Cl` (racemic) [Example 94, (±)-4-(2-Carboxymethoxy-5-chloro-phenyl)-6,7-dihydro-4H-thiazolo[5,4-c]pyridine-5-carboxylic acid 2,4-dichloro-benzyl ester] gave an IC50 of 17.1 nM.

In turn, `O=C(O)COc1ccc(Cl)cc1C1c2scnc2CCN1C(=O)OCc1nc2ccccc2o1` (racemic) [Example 97, (±)-4-(2-Carboxymethoxy-5-chloro-phenyl)-6,7-dihydro-4H-thiazolo[5,4-c]pyridine-5-carboxylic acid benzooxazol-2-ylmethyl ester] had an IC50 of 5.1 nM.
